In ChEMBL document CHEMBL3885881, “DrugMatrix”:

Species on record: Rattus norvegicus
Experiment: DrugMatrix - Regimen: Daily Repeat
Assay type: toxicity, organism-based, Sprague-Dawley
Design: regimen Daily Repeat, gender Male, age 6-8 weeks
Conditions: in vivo, po, route oral GAVAGE, vehicle 100 % WATER; for ABSOLUTE BASOPHIL / ABSOLUTE EOSINOPHIL / ABSOLUTE LYMPHOCYTE / ABSOLUTE MONOCYTE / ABSOLUTE SEGMENTED NEUTROPHIL / BASOPHIL / EOSINOPHIL / ERYTHROCYTE COUNT / HEMATOCRIT / HEMOGLOBIN / LEUKOCYTE COUNT / LYMPHOCYTE / MEAN CORPUSCULAR HEMOGLOBIN / MEAN CORPUSCULAR HEMOGLOBIN CONCENTRATION / MEAN CORPUSCULAR VOLUME / MONOCYTE / NEUTROPHIL / NUCLEATED RED BLOOD CELLS / PLATELET COUNT: tissue Blood; for ALANINE AMINOTRANSFERASE / ALBUMIN / ALKALINE PHOSPHATASE / ASPARTATE AMINOTRANSFERASE / BLOOD UREA NITROGEN / CARBON DIOXIDE / CHLORIDE / CHOLESTEROL / CREATINE PHOSPHOKINASE / CREATININE / GLUCOSE / LACTATE DEHYDROGENASE / LIPASE / PHOSPHORUS / POTASSIUM / SODIUM / TOTAL BILIRUBIN / TOTAL PROTEIN / URIC ACID: tissue Plasma
[1] = 0 mg/kg, 72 h, dose level Control, time 3 day
[2] = 0 mg/kg, 120 h, dose level Control, time 5 day
[3] = 30 mg/kg, 72 h, dose level Low, time 3 day

Which “ABSOLUTE BASOPHIL” value [1] does the source give for `CC1COc2c(N3CCN(C)CC3)c(F)cc3c(=O)c(C(=O)O)cn1c23` (centres undefined) [OFLOXACIN] here?
The value was 0 CELLS/uL.

And the “ABSOLUTE EOSINOPHIL” value [1]?
Its value is 0 CELLS/uL.

What about the “ABSOLUTE LYMPHOCYTE” value [1] of the same compound?
The value was 10386.33 CELLS/uL.

What about the “ABSOLUTE MONOCYTE” value [1] of the same compound?
Its value is 88.5 CELLS/uL.

And the “ABSOLUTE SEGMENTED NEUTROPHIL” value [1]?
Its value is 1008.5 CELLS/uL.

What about the BASOPHIL [1] of the same compound?
The BASOPHIL was 0%.

What about the EOSINOPHIL [1] of the same compound?
Its EOSINOPHIL is 0%.

What about the “ERYTHROCYTE COUNT” value [1] of the same compound?
Its value is 5.16 x10E6/uL.

And the HEMATOCRIT [1]?
The HEMATOCRIT was 32.43%.

And the HEMOGLOBIN [1]?
Its HEMOGLOBIN is 12.98 G/DL.

And the “LEUKOCYTE COUNT” value [1]?
Its value is 11.48 x10E3/uL.

What about the LYMPHOCYTE [1] of the same compound?
The LYMPHOCYTE was 92.33%.

And the “MEAN CORPUSCULAR HEMOGLOBIN” value [1]?
The value was 25.23 pg.

And the “MEAN CORPUSCULAR HEMOGLOBIN CONCENTRATION” value [1]?
Its value is 40.08 G/DL.

What about the “MEAN CORPUSCULAR VOLUME” value [1] of the same compound?
The value was 62.95 fL.

What about the MONOCYTE [1] of the same compound?
Its MONOCYTE is 0.67%.

And the NEUTROPHIL [1]?
The NEUTROPHIL was 7%.

And the “NUCLEATED RED BLOOD CELLS” value [1]?
The value was 0 /100WBC.

And the “PLATELET COUNT” value [1]?
The value was 1016.67 x10E3/uL.

What about the “ALANINE AMINOTRANSFERASE” value [1] of the same compound?
The value was 62.17 u/L.

And the ALBUMIN [1]?
Its ALBUMIN is 3.95 G/DL.

What about the “ALKALINE PHOSPHATASE” value [1] of the same compound?
Its value is 363.5 u/L.

And the “ASPARTATE AMINOTRANSFERASE” value [1]?
The value was 118 u/L.

What about the “BLOOD UREA NITROGEN” value [1] of the same compound?
The value was 14.5 mg/dL.

And the “CARBON DIOXIDE” value [1]?
Its value is 22.83 mmol/L.

And the CHLORIDE [1]?
Its CHLORIDE is 100.67 MEQ/L.

And the CHOLESTEROL [1]?
Its CHOLESTEROL is 66 mg/dL.

What about the “CREATINE PHOSPHOKINASE” value [1] of the same compound?
The value was 1308.83 u/L.

And the CREATININE [1]?
The CREATININE was 0.22 mg/dL.

What about the GLUCOSE [1] of the same compound?
Its GLUCOSE is 187.5 mg/dL.

And the “LACTATE DEHYDROGENASE” value [1]?
The value was 380.17 u/L.

What about the LIPASE [1] of the same compound?
Its LIPASE is 16.17 u/L.

And the PHOSPHORUS [1]?
Its PHOSPHORUS is 14.27 mg/dL.

And the POTASSIUM [1]?
The POTASSIUM was 6.8 MEQ/L.

And the SODIUM [1]?
The SODIUM was 142.53 MEQ/L.

What about the “TOTAL BILIRUBIN” value [1] of the same compound?
The value was 0.2 mg/dL.

And the “TOTAL PROTEIN” value [1]?
The value was 5.68 G/DL.

What about the “URIC ACID” value [1] of the same compound?
Its value is 2.87 mg/dL.

What about the “ABSOLUTE BASOPHIL” value [2] of the same compound?
The value was 0 CELLS/uL.

What about the “ABSOLUTE EOSINOPHIL” value [2] of the same compound?
Its value is 80 CELLS/uL.

What about the “ABSOLUTE LYMPHOCYTE” value [2] of the same compound?
The value was 13301.33 CELLS/uL.

And the “ABSOLUTE MONOCYTE” value [2]?
The value was 180.83 CELLS/uL.

What about the “ABSOLUTE SEGMENTED NEUTROPHIL” value [2] of the same compound?
The value was 1187.83 CELLS/uL.

And the BASOPHIL [2]?
Its BASOPHIL is 0%.

What about the EOSINOPHIL [2] of the same compound?
Its EOSINOPHIL is 0.5%.

And the “ERYTHROCYTE COUNT” value [2]?
Its value is 5.54 x10E6/uL.

What about the HEMATOCRIT [2] of the same compound?
The HEMATOCRIT was 35.65%.

What about the HEMOGLOBIN [2] of the same compound?
The HEMOGLOBIN was 14.22 G/DL.

And the “LEUKOCYTE COUNT” value [2]?
The value was 14.75 x10E3/uL.

And the LYMPHOCYTE [2]?
The LYMPHOCYTE was 90.67%.

And the “MEAN CORPUSCULAR HEMOGLOBIN” value [2]?
Its value is 25.65 pg.

What about the “MEAN CORPUSCULAR HEMOGLOBIN CONCENTRATION” value [2] of the same compound?
Its value is 39.88 G/DL.

What about the “MEAN CORPUSCULAR VOLUME” value [2] of the same compound?
The value was 64.35 fL.

What about the MONOCYTE [2] of the same compound?
The MONOCYTE was 1%.

What about the NEUTROPHIL [2] of the same compound?
Its NEUTROPHIL is 7.83%.

And the “NUCLEATED RED BLOOD CELLS” value [2]?
Its value is 0.17 /100WBC.

What about the “PLATELET COUNT” value [2] of the same compound?
Its value is 1285.33 x10E3/uL.

What about the “ALANINE AMINOTRANSFERASE” value [2] of the same compound?
The value was 51.67 u/L.

What about the ALBUMIN [2] of the same compound?
Its ALBUMIN is 4.08 G/DL.

What about the “ALKALINE PHOSPHATASE” value [2] of the same compound?
The value was 391.5 u/L.

And the “ASPARTATE AMINOTRANSFERASE” value [2]?
The value was 99.5 u/L.

And the “BLOOD UREA NITROGEN” value [2]?
The value was 15.5 mg/dL.

What about the “CARBON DIOXIDE” value [2] of the same compound?
The value was 28.33 mmol/L.

What about the CHLORIDE [2] of the same compound?
The CHLORIDE was 101.83 MEQ/L.

What about the CHOLESTEROL [2] of the same compound?
Its CHOLESTEROL is 67.83 mg/dL.

What about the “CREATINE PHOSPHOKINASE” value [2] of the same compound?
The value was 771.33 u/L.

And the CREATININE [2]?
The CREATININE was 0.23 mg/dL.

What about the GLUCOSE [2] of the same compound?
Its GLUCOSE is 156.5 mg/dL.

And the “LACTATE DEHYDROGENASE” value [2]?
Its value is 544.33 u/L.

And the LIPASE [2]?
Its LIPASE is 10.17 u/L.

And the PHOSPHORUS [2]?
Its PHOSPHORUS is 12.03 mg/dL.

And the POTASSIUM [2]?
Its POTASSIUM is 6.81 MEQ/L.

And the SODIUM [2]?
The SODIUM was 144.13 MEQ/L.

And the “TOTAL BILIRUBIN” value [2]?
The value was 0.22 mg/dL.

What about the “TOTAL PROTEIN” value [2] of the same compound?
The value was 6 G/DL.

And the “URIC ACID” value [2]?
Its value is 2.18 mg/dL.

What about the “ABSOLUTE BASOPHIL” value [3] of the same compound?
The value was 0 CELLS/uL.

And the “ABSOLUTE EOSINOPHIL” value [3]?
Its value is 95.33 CELLS/uL.

What about the “ABSOLUTE LYMPHOCYTE” value [3] of the same compound?
The value was 12358.67 CELLS/uL.

What about the “ABSOLUTE MONOCYTE” value [3] of the same compound?
Its value is 136.33 CELLS/uL.

And the “ABSOLUTE SEGMENTED NEUTROPHIL” value [3]?
Its value is 1043 CELLS/uL.

And the BASOPHIL [3]?
Its BASOPHIL is 0%.

And the EOSINOPHIL [3]?
Its EOSINOPHIL is 0.67%.

What about the “ERYTHROCYTE COUNT” value [3] of the same compound?
The value was 5.52 x10E6/uL.

And the HEMATOCRIT [3]?
Its HEMATOCRIT is 36.03%.

And the HEMOGLOBIN [3]?
The HEMOGLOBIN was 13.97 G/DL.

What about the “LEUKOCYTE COUNT” value [3] of the same compound?
The value was 13.63 x10E3/uL.

And the LYMPHOCYTE [3]?
The LYMPHOCYTE was 90.67%.

And the “MEAN CORPUSCULAR HEMOGLOBIN” value [3]?
Its value is 25.4 pg.

What about the “MEAN CORPUSCULAR HEMOGLOBIN CONCENTRATION” value [3] of the same compound?
The value was 38.77 G/DL.

And the “MEAN CORPUSCULAR VOLUME” value [3]?
Its value is 65.33 fL.

What about the MONOCYTE [3] of the same compound?
The MONOCYTE was 1%.

What about the NEUTROPHIL [3] of the same compound?
The NEUTROPHIL was 7.67%.

And the “NUCLEATED RED BLOOD CELLS” value [3]?
The value was 0 /100WBC.

What about the “PLATELET COUNT” value [3] of the same compound?
The value was 1082 x10E3/uL.

And the “ALANINE AMINOTRANSFERASE” value [3]?
Its value is 46.67 u/L.

And the ALBUMIN [3]?
The ALBUMIN was 4.03 G/DL.

What about the “ALKALINE PHOSPHATASE” value [3] of the same compound?
Its value is 420.67 u/L.

What about the “ASPARTATE AMINOTRANSFERASE” value [3] of the same compound?
The value was 75 u/L.

And the “BLOOD UREA NITROGEN” value [3]?
The value was 13.33 mg/dL.

And the “CARBON DIOXIDE” value [3]?
The value was 28 mmol/L.

And the CHLORIDE [3]?
The CHLORIDE was 100.33 MEQ/L.

And the CHOLESTEROL [3]?
Its CHOLESTEROL is 76.33 mg/dL.

What about the “CREATINE PHOSPHOKINASE” value [3] of the same compound?
Its value is 165.33 u/L.

What about the CREATININE [3] of the same compound?
The CREATININE was 0.19 mg/dL.

And the GLUCOSE [3]?
The GLUCOSE was 159 mg/dL.

And the “LACTATE DEHYDROGENASE” value [3]?
Its value is 114 u/L.

What about the LIPASE [3] of the same compound?
The LIPASE was 10.67 u/L.

And the PHOSPHORUS [3]?
Its PHOSPHORUS is 13.07 mg/dL.

What about the POTASSIUM [3] of the same compound?
The POTASSIUM was 6.69 MEQ/L.

And the SODIUM [3]?
The SODIUM was 143.73 MEQ/L.

What about the “TOTAL BILIRUBIN” value [3] of the same compound?
Its value is 0.2 mg/dL.

And the “TOTAL PROTEIN” value [3]?
Its value is 5.87 G/DL.

What about the “URIC ACID” value [3] of the same compound?
Its value is 1.23 mg/dL.
